Measured values published in US6410054B1, “Immediate release eplerenone compositions” (G. D. Searle & Co., priority 1998, dated 2002).

Tests used:
Assay type in all cases: in vivo, humans
[1] = ADME study of [14C]eplerenone oral solution: plasma, whole blood, saliva pharmacokinetics; conditions: for Total Radioactivity AUC0-inf (± SEM) / Total Radioactivity Cmax (± SEM): 100 mg [14C]eplerenone oral solution
Method: (§1) An open-label, single dose study was employed to evaluate the absorption, distribution, metabolism and elimination profile of a single 100 mg dose of an oral solution of eplerenone.
(§2) The study employed eight healthy male humans. Each subject received a single 100 mg oral dose of a solution of [^14C]eplerenone (specific activity 0.75 μCi/mg). Plasma, saliva, breath, urine and fecal samples were collected at predetermined intervals and analyzed for sample radioactivity and the concentration of eplerenone and its open lactone ring form. Safety was determined on the basis of laboratory tests, vital signs, and the occurrence and types of adverse events.
(§3) The subjects, who underwent an overnight food fast prior to administration of the dose, received at 0800 hours a single 100 mg oral dose of an aqueous oral solution of radiolabeled eplerenone reconstituted in 80 mL of an apple juice/hydroxypropyl-β-cyclodextrin mixture. The subjects swallowed about 200 mL of water one, two and three hours post dosing.
(§4) Blood samples were collected at −0.5 (predose), 0.5, 1, 1.5, 2, 2.5, 3, 4, 6, 8, 12, 16, 24, 36, 48, 72 and 96 hours post dose. […] Individual fecal samples were collected beginning immediately after dosing and continuing through 0800 hours on day 8. In addition, one predose fecal sample was provided. Saliva samples were taken at 0.5 hour predose and at 0.5, 1, 2, 4, 6, 12, and 24 hours postdose. Breath samples were taken at 0.5 hour predose and at 1, 2, 3, 4, 6, 8, 12, 24, 36, 48 and 72 hours postdose.

[2] = ADME study of [14C]eplerenone oral solution: excretion in urine, feces, breath
Method: as §1, §2, §3, §4

[3] = Effect of food study: plasma pharmacokinetics fasted vs high-fat breakfast; conditions: for concentration at 0.5 h / concentration at 1 h / concentration at 2 h / concentration at 3 h / concentration at 4 h / concentration at 6 h / concentration at 8 h / concentration at 28 h / concentration at 48 h / concentration at 72 h / concentration at 12 h / concentration at 16 h / concentration at 24 h / concentration at 32 h / concentration at -0.5 h: male, human, plasma, oral, 100 mg, 100 mg eplerenone capsule; for concentration at 0.5 h: 0.5 hours after dosing; for concentration at 1 h: 1.0 hours after dosing; for concentration at 2 h: 2.0 hours after dosing; for concentration at 3 h: 3.0 hours after dosing; for concentration at 4 h: 4.0 hours after dosing; for concentration at 6 h: 6.0 hours after dosing; for concentration at 8 h: 8.0 hours after dosing; for concentration at 28 h: 28.0 hours after dosing; for concentration at 48 h: 48.0 hours after dosing; for concentration at 72 h: 72.0 hours after dosing; for concentration at 12 h / concentration at 16 h / concentration at 24 h / concentration at 32 h: […] after dosing; for concentration at -0.5 h: −0.5 hours after dosing
Method: An open-label randomized, cross-over study was employed to evaluate the pharmacokinetic profiles of eplerenone under fasted and fed conditions, and the safety and tolerability of eplerenone. Safety was assessed based on adverse events, vital signs and clinical laboratory tests. Twelve healthy male subjects were randomized to receive a single 100 mg dose of eplerenone on days 1 and 8 under (i) fasted conditions, or (ii) immediately following a high-fat breakfast. The subjects were orally administered (dosed) a single 100 mg dose of eplerenone in the form of the capsule described in Example 7, together with approximately 200 to 240 mL of water at 0800 hours on days 1 and 8. Subjects randomized to receive a high-fat breakfast were to completely ingest the meal within 20 minutes prior to dosing. The high-fat meal contained approximately 33 g protein, 75 g fat, 58 g carbohydrates and 1000 calories. […] All adverse events were mild in severity.

[4] = male, human, plasma, 100 mg eplerenone oral solution, single dose
[5] = 100 mg [14C]eplerenone oral solution
[6] = 100 mg [14C]eplerenone oral solution, mean

COC(=O)C1CC2=CC(=O)CCC2(C)C23OC2CC2(C)C(CC[C@@]24CCC(=O)O4)C13 (stereo partly drawn) [eplerenone, methyl hydrogen 9,11α-epoxy-17α-hydroxy-3-oxopregn-4-ene-7α,21-dicarboxylate, γ-lactone]
concentration of total radioactivity ([1]; 1.5 hour plasma samples, mean): 2390 ng/mL
Total Radioactivity AUC0-inf (± SEM) ([1]; Plasma): 18400 ± 1200 ng equivalents hr/mL
Total Radioactivity Cmax (± SEM) ([1]; Plasma): 2490 ± 110 ng equivalents/mL
Total Radioactivity AUC0-inf (± SEM) ([1]; Saliva): 7960 ± 500 ng equivalents hr/mL
Total Radioactivity Cmax (± SEM) ([1]; Saliva): 2170 ± 280 ng equivalents/mL
Total Radioactivity AUC0-inf (± SEM) ([1]; Whole Blood): 12800 ± 800 ng equivalents hr/mL
Total Radioactivity Cmax (± SEM) ([1]; Whole Blood): 1770 ± 80 ng equivalents/mL
concentration at 0.5 h ([1]; male, human, plasma, 100 mg oral solution of [14C]eplerenone, 0.5 hours after dosing): 1340 ng/mL
concentration at 1 h ([1]; male, human, plasma, 100 mg oral solution of [14C]eplerenone, 1.0 hours after dosing): 1620 ng/mL
concentration at 1.5 h ([1]; male, human, plasma, 100 mg oral solution of [14C]eplerenone, 1.5 hours after dosing): 1590 ng/mL
concentration at 2 h ([1]; male, human, plasma, 100 mg oral solution of [14C]eplerenone, 2.0 hours after dosing): 1420 ng/mL
concentration at 2.5 h ([1]; male, human, plasma, 100 mg oral solution of [14C]eplerenone, 2.5 hours after dosing): 1260 ng/mL
concentration at 3 h ([1]; male, human, plasma, 100 mg oral solution of [14C]eplerenone, 3.0 hours after dosing): 1180 ng/mL
concentration at 4 h ([1]; male, human, plasma, 100 mg oral solution of [14C]eplerenone, 4.0 hours after dosing): 1000 ng/mL
concentration at 6 h ([1]; male, human, plasma, 100 mg oral solution of [14C]eplerenone, 6.0 hours after dosing): 596 ng/mL
concentration at 8 h ([1]; male, human, plasma, 100 mg oral solution of [14C]eplerenone, 8.0 hours after dosing): 391 ng/mL
concentration at 12 h ([1]; male, human, plasma, 100 mg oral solution of [14C]eplerenone, 12.0 hours after dosing): 149 ng/mL
concentration at 16 h ([1]; male, human, plasma, 100 mg oral solution of [14C]eplerenone, 16.0 hours after dosing): 68 ng/mL
concentration at 24 h ([1]; male, human, plasma, 100 mg oral solution of [14C]eplerenone, 24.0 hours after dosing): 17.3 ng/mL
concentration at 36 h ([1]; male, human, plasma, 100 mg oral solution of [14C]eplerenone, 36.0 hours after dosing): 0 ng/mL
concentration at 48 h ([1]; male, human, plasma, 100 mg oral solution of [14C]eplerenone, 48.0 hours after dosing): 0 ng/mL
concentration at 72 h ([1]; male, human, plasma, 100 mg oral solution of [14C]eplerenone, 72.0 hours after dosing): 0 ng/mL
concentration at 96 h ([1]; male, human, plasma, 100 mg oral solution of [14C]eplerenone, 96.0 hours after dosing): 0 ng/mL
concentration at -0.5 h ([1]; male, human, plasma, 100 mg oral solution of [14C]eplerenone, −0.5 hours after dosing): 0 ng/mL
Cmax [1, 4]: 1720 ng/mL
half-life [1, 4]: 3.8 h
AUC(0-t) ([1]; male, human, plasma, 100 mg eplerenone oral solution, single dose, read-out: AUC(0-96)): 9540 ng·h/mL
MRT ([1]; male, human, plasma, 100 mg eplerenone oral solution, single dose, read-out: Mean Residence Time): 4.8 h
Tmax ([1]; male, human, plasma, 100 mg eplerenone oral solution, single dose, read-out: Tmax): 1.3 h
Oral Clearance ([1]; plasma, 100 mg eplerenone oral solution, single dose): 11.4 L/h
share of urinary and fecal radioactivity due to eplerenone [2, 5]: less than 15%
urinary radioactivity excreted within the first 24 hours [2, 5]: Over 90%
dose excreted as total radioactivity in feces [2, 6]: 32.0%
dose excreted as total radioactivity in urine [2, 6]: 66.6%
dose excreted in feces as the named form [2, 6]: 0.807%
dose excreted in urine as the named form [2, 6]: 1.65%
total radioactivity in the breath ([2]; any time point, any subject): no detectable concentrations
effect of high-fat meal on AUC0-96 ([3]; 100 mg capsule, fed vs fasted): minimal or no measurable effect
effect of high-fat meal on Cmax ([3]; 100 mg capsule, fed vs fasted): reduction
effect of high-fat meal on Tmax ([3]; 100 mg capsule, fed vs fasted): increase
effect of high-fat meal on T½ ([3]; 100 mg capsule, fed vs fasted): minimal or no measurable effect
concentration at 0.5 h ([3]; Fasted Conditions): 1010 ng/mL
concentration at 1 h ([3]; Fasted Conditions): 1560 ng/mL
concentration at 2 h ([3]; Fasted Conditions): 1390 ng/mL
concentration at 3 h ([3]; Fasted Conditions): 1170 ng/mL
concentration at 4 h ([3]; Fasted Conditions): 955 ng/mL
concentration at 6 h ([3]; Fasted Conditions): 587 ng/mL
concentration at 8 h ([3]; Fasted Conditions): 388 ng/mL
concentration at 28 h ([3]; Fasted Conditions): 7.62 ng/mL
concentration at 48 h ([3]; Fasted Conditions): 0 ng/mL
concentration at 72 h ([3]; Fasted Conditions): 0 ng/mL
concentration at 12 h ([3]; Fasted Conditions): 151 ng/mL
concentration at 16 h ([3]; Fasted Conditions): 68.8 ng/mL
concentration at 24 h ([3]; Fasted Conditions): 17.7 ng/mL
concentration at 32 h ([3]; Fasted Conditions): 3.28 ng/mL
concentration at -0.5 h ([3]; Fasted Conditions): 0 ng/mL
concentration at 0.5 h ([3]; High Fat Breakfast): 71.2 ng/mL
concentration at 1 h ([3]; High Fat Breakfast): 366 ng/mL
concentration at 2 h ([3]; High Fat Breakfast): 712 ng/mL
concentration at 3 h ([3]; High Fat Breakfast): 1040 ng/mL
concentration at 4 h ([3]; High Fat Breakfast): 1240 ng/mL
concentration at 6 h ([3]; High Fat Breakfast): 946 ng/mL
concentration at 8 h ([3]; High Fat Breakfast): 673 ng/mL
concentration at 28 h ([3]; High Fat Breakfast): 21.7 ng/mL
concentration at 48 h ([3]; High Fat Breakfast): 1.91 ng/mL
concentration at 72 h ([3]; High Fat Breakfast): 0 ng/mL
concentration at 12 h ([3]; High Fat Breakfast): 282 ng/mL
concentration at 16 h ([3]; High Fat Breakfast): 130 ng/mL
concentration at 24 h ([3]; High Fat Breakfast): 39 ng/mL
concentration at 32 h ([3]; High Fat Breakfast): 7.51 ng/mL
concentration at -0.5 h ([3]; High Fat Breakfast): 0 ng/mL
